Key:
p60c-src kinase = p60c-src kinase (Homo sapiens, UniProt P12931); assay: Multiplex kinase profiling assay, 194-target pool, chemical labeling, p60c-src kinase; type: biochemical; conditions: chemical labeling with low pH EDC pre-treatment
Procedure: (§1) A kinase profiling assay was carried out in four major steps, including the phosphorylation of protein target in a kinase enzyme reaction, labeling of phosphorylated target, hybridization of labeled target to the array, and detection of hybridized target on the array.
(§2) In the first step, phosphorylation was carried out in duplex format such that a mixture of two DNA-protein conjugate targets, one having an amino acid recognition sequence for p60c-src kinase and the other for PKA kinase, were co-incubated with p60c-src kinase and PKA kinase. The reaction was performed in 15 ul of 50 mM HEPES, containing 0.1 mM EDTA, 0.015% Brig 35, 0.15 mM ATP, 30 mM MgCl2, 0.1% 2-mercaptoethanol, pH 7.5.
(§3) Upon completion of the enzymatic reaction; the second step was carried out to detect phosphorylation using chemical labeling or antibody-based labeling. In the chemical labeling method, a solution of 5-(aminoacetamido)fluorescein (NH2-FAM, Molecular Probes, Oreg.) and EDC in MES buffer, pH 6.0, was added to the reaction mixture to a final concentration of 150 mM EDC and 200 μM of NH2-FAM. Where pre-treatment was used to block (i.e. protect) […] moieties, the pH of the reaction mixture was first adjusted to pH 4.5 and then pre-treated with 100 mM of EDC for 1.5 hours at 25° C. After the pre-treatment, the NH2-FAM and EDC were added and the reaction was allowed to proceed overnight. […]

PKA kinase = PKA kinase (Homo sapiens, UniProt P17612); assay: Multiplex kinase profiling assay, 194-target pool, chemical labeling, PKA kinase; type: biochemical; conditions: selectivity check
Procedure: as §1, §2, §3

Chain of p60c-src kinase (P12931 whole entry): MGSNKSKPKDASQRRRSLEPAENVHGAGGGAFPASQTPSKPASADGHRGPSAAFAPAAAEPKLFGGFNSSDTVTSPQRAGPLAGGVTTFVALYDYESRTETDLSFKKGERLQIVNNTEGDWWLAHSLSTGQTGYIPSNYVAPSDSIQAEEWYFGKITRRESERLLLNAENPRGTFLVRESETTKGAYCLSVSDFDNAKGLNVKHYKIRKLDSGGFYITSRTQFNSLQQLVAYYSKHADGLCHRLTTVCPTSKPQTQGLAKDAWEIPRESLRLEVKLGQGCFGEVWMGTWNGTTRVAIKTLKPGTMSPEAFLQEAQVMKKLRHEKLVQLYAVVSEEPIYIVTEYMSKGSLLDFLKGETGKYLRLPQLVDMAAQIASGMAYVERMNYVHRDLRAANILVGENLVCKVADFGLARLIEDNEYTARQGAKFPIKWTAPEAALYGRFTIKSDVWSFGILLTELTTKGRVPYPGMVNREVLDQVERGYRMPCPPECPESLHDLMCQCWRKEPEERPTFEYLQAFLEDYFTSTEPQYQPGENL

inhibition of p60c-src kinase (p60c-src kinase): 85%
effect on PKA kinase (PKA kinase): no detectable effect
SMILES: COc1cc2ncnc(Nc3ccc(Oc4ccccc4)cc3)c2cc1OC [Src Kinase Inhibitor I]

From US8101375B2, “Compositions and methods for detecting phosphomonoester” (Illumina, Inc., priority 2005, dated 2012)
